ChEMBL document CHEMBL4196244, “Matrine-Type Alkaloids from the Roots of Sophora flavescens and Their Antiviral Activities against the Hepatitis B Virus” (J Nat Prod, 2018)
Activity calls are given as the source filed them. No cut-off for these calls is given here.

Key:
[1] = test system: Hepatitis B virus; assay: Antiviral activity against HBV infected in human HepG2.2.15 cells assessed as inhibition of HBsAg secretion at 0.2 mM supplemented with fresh medium containing compound every 3 days for 9 days measured after 9 days by ELISA relative to control; type: functional
[2] = test system: Hepatitis B virus; assay: Antiviral activity against HBV infected in human HepG2.2.15 cells assessed as inhibition of HBeAg secretion at 0.2 mM supplemented with fresh medium containing compound every 3 days for 9 days measured after 9 days by ELISA relative to control; type: functional
[3] = Cytotoxicity against human HepG2.2.15 cells assessed as growth inhibition at 0.4 mM by MTT assay relative to control; type: cell-based, HepG2 2.2.15; conditions: read-out: GI
[4] = test system: Hepatitis B virus; assay: Antiviral activity against HBV infected in human HepG2.2.15 cells assessed as inhibition of HBsAg secretion at 0.4 mM supplemented with fresh medium containing compound every 3 days for 9 days measured after 9 days by ELISA relative to control; type: functional
[5] = test system: Hepatitis B virus; assay: Antiviral activity against HBV infected in human HepG2.2.15 cells assessed as inhibition of HBeAg secretion at 0.4 mM supplemented with fresh medium containing compound every 3 days for 9 days measured after 9 days by ELISA relative to control; type: functional
[6] = Cytotoxicity against human HepG2.2.15 cells assessed as growth inhibition at 0.8 mM by MTT assay relative to control; type: cell-based, HepG2 2.2.15; conditions: read-out: GI
[7] = test system: Hepatitis B virus; assay: Antiviral activity against HBV infected in human HepG2.2.15 cells assessed as inhibition of HBeAg secretion at 0.8 mM supplemented with fresh medium containing compound every 3 days for 9 days measured after 9 days by ELISA relative to control; type: functional
[8] = Cytotoxicity against human HepG2.2.15 cells assessed as growth inhibition at 1 mM by MTT assay relative to control; type: cell-based, HepG2 2.2.15; conditions: read-out: GI
[9] = test system: Hepatitis B virus; assay: Antiviral activity against HBV infected in human HepG2.2.15 cells assessed as inhibition of HBsAg secretion at 0.8 mM supplemented with fresh medium containing compound every 3 days for 9 days measured after 9 days by ELISA relative to control; type: functional
[10] = test system: Hepatitis B virus; assay: Antiviral activity against HBV infected in human HepG2.2.15 cells assessed as inhibition of HBeAg secretion at 1 mM supplemented with fresh medium containing compound every 3 days for 9 days measured after 9 days by ELISA relative to control; type: functional
[11] = test system: Hepatitis B virus; assay: Antiviral activity against HBV infected in human HepG2.2.15 cells assessed as inhibition of HBsAg secretion at 1 mM supplemented with fresh medium containing compound every 3 days for 9 days measured after 9 days by ELISA relative to control; type: functional

O=C1CCC[C@@H]2[C@H]3CCCN4CCC[C@@](O)(CN12)[C@@H]34
inhibition (INH) [1]: 33.8% | inhibition (INH) [2]: 28.4% | inhibition at 400 µM [3]: ≥ 25%

O=C(O)CCCC1=NCC2CCCN3CCCC1=C23 (racemic)
inhibition (INH) [4]: 29.8% | inhibition (INH) [5]: 15.1% | inhibition at 800 µM [6]: ≥ 25%

O=C1[C@@H](O)CC[C@@H]2[C@H]3CCCN4CCC[C@@H](CN12)[C@@H]34
inhibition (INH) [4]: 33.2% | inhibition (INH) [5]: 18.5% | inhibition at 800 µM [6]: ≥ 25%

O=C1CCCC2=C3CCCN4CCC[C@@H](CN12)[C@@H]34
inhibition (INH) [4]: 22.4% | inhibition (INH) [5]: 29.9% | inhibition at 800 µM [6]: ≥ 25%

O=C(O)CCC[C@@H]1N=CC2=C3[C@H]1CCCN3CCC2
inhibition (INH) [4]: 30.8% | inhibition (INH) [5]: 16.8% | inhibition at 800 µM [6]: ≥ 25%

O=C1CCCC2=C3CCC[N+]4([O-])CCC[C@@H](CN12)[C@@H]34 (stereo partly specified)
inhibition (INH) [7]: 22.6% | inhibition at 1000 µM [8]: ≥ 25% | inhibition (INH) [9]: 25.4%

O=C1CCC[C@@H]2[C@H]3CCCN4CCC[C@H](CN12)[C@H]34
inhibition (INH) [4]: 13.8% | inhibition [5]: inactive | inhibition at 800 µM [6]: ≥ 25%

O=C(CCCc1ncc2c3c1CCCN3CCC2)N1CCCCC1
inhibition (INH) [1]: 44.3% | inhibition (INH) [2]: 38% | inhibition at 400 µM [3]: ≥ 25%

O=C(O)CCCc1ncc2c3c1CCCN3CCC2
inhibition (INH) [4]: 37.2% | inhibition (INH) [5]: 33.2% | inhibition at 800 µM [6]: ≥ 25%

O=C1CC[C@H]2[C@@H]3[C@H](CCCN13)CN1C(=O)CCC[C@H]21
inhibition (INH) [4]: 32.5% | inhibition (INH) [5]: 18.3% | inhibition at 800 µM [6]: ≥ 25%

O=C1CCCN2CCC[C@](O)(CN3C(=O)CCC[C@H]13)C2=O
inhibition (INH) [4]: 14.1% | inhibition [5]: inactive | inhibition at 800 µM [6]: ≥ 25%

O=c1cccc2n1C[C@@H]1CCCN3CCC[C@H]2[C@H]13
inhibition (INH) [7]: 13.5% | inhibition at 1000 µM [8]: ≥ 25% | inhibition (INH) [9]: 29.5%

Nc1ccn([C@@H]2CS[C@H](CO)O2)c(=O)n1 [LAMIVUDINE]
inhibition (INH) [10]: 37.5% | inhibition (INH) [11]: 31.5 - 32.6%

O=C1CCC[C@@H]2[C@H]3CCCN4CCC[C@@H](CN12)[C@H]34
inhibition (INH) [4]: 26.3% | inhibition (INH) [5]: 17.7% | inhibition at 800 µM [6]: ≥ 25%

O=C1CCC[C@@H]2[C@H]3CCCN4CCC[C@@H](CN12)[C@@H]34 [MATRINE]
inhibition (INH) [4]: 34.7% | inhibition (INH) [5]: 16.8% | inhibition at 800 µM [6]: ≥ 25%

O=C1CCC[C@@H]2[C@H]3CCCN4CCC[C@H](CN12)[C@@H]34 [SOPHORIDINE]
inhibition (INH) [4]: 40.2% | inhibition (INH) [5]: 21.9% | inhibition at 800 µM [6]: ≥ 25%

O=C1CCC[C@@H]2[C@H]3CCC[N+]4([O-])CCC[C@@H](CN12)[C@@H]34 (stereo partly specified) [OXYMATRINE]
inhibition (INH) [4]: 38.3% | inhibition (INH) [5]: 20.3% | inhibition at 800 µM [6]: ≥ 25%

O=C1CC[C@H]2C3=C(CCCN13)CN1C(=O)CCC[C@H]21
inhibition (INH) [1]: 33% | inhibition (INH) [2]: 38.8% | inhibition at 400 µM [3]: ≥ 25%

O=C1CCCN2CCC[C@](O)(C2=O)[C@H]2CCCC(=O)N2C1
inhibition (INH) [4]: 46% | inhibition (INH) [5]: 40.4% | inhibition at 800 µM [6]: ≥ 25%
